Consider one substance from patent publication US20100150938A1, “METHODS AND COMPOSITIONS FOR REDUCING INFLAMMATION AND TREATING INFLAMMATORY DISORDERS” (UNIVERSITY OF MASSACHUSETTS, priority 2008, published 2010).

One data set deals with mouse microglia. In words: IL-1β release from LPS-primed mouse microglia (ELISA). The settings on record: LPS-primed primary and immortalized mouse microglia, 10 μM. Format: cell-based. As to the method:
For primary cultures, bone marrow-derived macrophages and microglia were isolated as described^42,43 and cultured in DMEM supplemented with L-glutamine, ciprofloxacin (Cellgro, Manassas, Va.) and 10% fetal calf serum (Hyclone, Logan, Utah) Immortalized macrophage and microglial cell lines were generated using J2 recombinant retrovirus (carrying v-myc and v-raf oncogenes)^44,45. Briefly, primary bone marrow cells were incubated in L929 conditioned medium for 3-4 days to induce macrophage differentiation. Cells were then infected with J2 recombinant retrovirus and maintained in culture until cells were growing in the absence of conditioned medium. Similarly, primary mixed glial cultures were cultured until fully confluent. After two consecutive infections with J2 retrovirus, cells were maintained in normal medium until growth of microglial cells in colonies was observed. The semi-adherent colonies of microglial cells were washed off and cultured in new flasks. […] Microglial cell lines form wild type (C57/BL6), Caspase-1^−/− and IL-IR^−/− mice as well as macrophage cell lines from wild type (C57BL6), NALP3 -, IPAF- and ASC-deficient mice were generated and used for experiments as indicated.
Stimulations were carried out in serum free DMEM medium. Microglial cells and macrophages were primed with 100 U/ml IFNγ (Griess assay, TNF ELISA, real-time quantitative PCR) or 100 ng/ml ultrapure LPS (IL-1β ELISA, FLICA, ASC-CFP microglia cell line assay, Western blot) 1-3 h prior to stimulation with Aβ, revAβ, zymosan, ATP or transfection with dAdT.
Cell culture supernatants were assayed for IL-1β and TNFα using ELISA kits from R&D Systems (Minneapolis, Minn.) according to the manufacturer's instructions. Nitric oxide was measured by Griess reaction of nitrites accumulated in the supernatants using chemicals from Sigma.

For a further data set, the system named is lysosomes of microglia. In words: Lysosomal swelling and damage in microglia after Aβ phagocytosis (LAMP-1, cathepsin B, LysoTracker). The class given is cell-based, mouse. How it is done:
Neuronal, microglial, mixed neuronal/microglial and primary mixed glial cultures were fixed with 4% paraformaldehyde for 30 min and incubations with respective primary and secondary antibodies were performed for 2 h at room temperature in PBS containing 1% bovine serum albumin, 5% fetal calf serum and 0.05% saponin Cell nuclei were stained with Hoechst 33258 (1:1000).
For evaluation of lysosomal damage, cells were incubated with LysoTracker green (1:2000) for 30 min and stimulated as described. Lysosomal damage was defined as loss of LysoTracker fluorescence as assessed by flow cytometry. All flow cytometry experiments were performed on an LSRII cytometer (BD Biosciences), data were acquired by DIVA software (BD Biosciences) and analyzed with FlowJo software (Tree Star Inc., Ashland, Oreg.).

The next data set deals with CAD mouse neuronal cells. Description: Neurotoxicity assay, CAD mouse neuronal cells with or without microglia. The class given is cell-based. As to the method: For assessment of microglia-induced neurotoxicity, CAD mouse neuronal cells^47 were seeded on poly-L-lysine coated glass cover slips and grown in F12/DMEM supplemented with ciprofloxacin (Cellgro, Manassas, Va.) and 10% fetal calf serum (Hyclone, Logan, Utah) for 24 h. Differentiation was induced by withdrawal of serum for 48 h Immortalized microglia from wildtype or caspase-1^−/− mice were added in serum free medium to obtain mixed neuronal/microglial cultures and immediately stimulated. 72 h after stimulation with Aβ or media, cells were fixed, stained for the neuron-specific marker TuJ-1 and microglial marker CD11b, and imaged by confocal microscopy (Leica SP2 AOBS). Caspase-1 activity in microglial cells was assessed using the caspase-1 FLICA™ kit (Immunochemistry Technologies, Bloomington, Minn.) according to the manufacturer's instructions.

The test system of a further data set is mice. Description: Stereotaxic brain microinjection, microglial recruitment (F4/80). The settings on record: wild type mice, 1 μl of 1 mg/ml into striatum, 48 h. Format: in vivo, mouse. How it is done:
Injections were performed as described^27. Briefly, six week old mice (n=4 in each group) were anesthetized with ketamine (100 mg/kg i.p.; Webster) and xylazine (10 mg/kg i.p.; Webster), placed on a homoeothermic heating blanket (Harvard Apparatus) and immobilized in a stereotaxic frame (Stoelting). A linear skin incision was made under sterile conditions, and a small hole was created in the skull using a dental drill 1 mm anterior and 2 mm lateral to bregma over both hemispheres. 1 μl Aβ in sterile pyrogen-free saline (1 mg/ml) was inoculated on the left side, and the same amount of revAβ was inoculated on the right side, using separate Hamilton syringes. Mice were allowed to fully recover on a heating blanket. After 48 hours, the mice were anesthetized with ketamine/xylazine and transcardially perfused with 4% paraformaldehyde in PBS. Brains were removed, placed in 4% PFA overnight at 4° C., and then transferred to PBS and stored at 4° C. until sectioning. Coronal 60 μm sections were taken using a vibratome (Leica). […] To quantify the number of microglia recruited to sites of microinjection, serial sections from each site of injection were visualized by fluorescence microscopy (Nikon Eclipse E400) and digitally photographed. […] Fluorescence intensity of microglia immunoreactive for F4/80 at each injection site was quantified using ImageJ (NIH).

For data set [1], the system named is CCL-3/MIP1 a, CCL4/MIP1β and CXCL2/MIP2. In words: Chemokine mRNA in microglia (QRT-PCR). The settings on record: wild type microglial cells, Aβ 10 μM, 6 and 24 h. The class given is cell-based, mouse. How it is done:
Immortalized murine microglia were seeded in 6 well tissue culture plates, incubated in the absence or presence of 10 μM Aβ, washed with PBS and lysed in 1 mL TRIZOL reagent (Invitrogen). RNA was purified by organic extraction. 5 μg of RNA from each sample was reverse transcribed using multiscribe reverse transcriptase (Applied Biosystems). Oligonucleotide primers were designed using the Primer3 Input PCR primer design program (version 0.4.0.) and QRT-PCR experiments were performed using an iQ Real-Time PCR Detection System (Bio-Rad) and Optical System Software (Version 2.0, Bio-Rad). Relative quantification of mRNA expression was calculated by the comparative cycle method as described by the manufacturer.

Entries after “also recorded” stand apart in the source; their conditions may differ.

With Aβ 1-42 peptide, the “IL-1β release into supernatants induced by the peptide” value in the data set on mouse microglia is “time-dependent release of IL-1β”. In addition, the “IL-1β release into supernatants induced by the peptide” value with mouse microglia (listed as fibrillar Aβ) was “early and pronounced IL-1β release”. Further, in the data set on lysosomes of microglia (microglia, 4 h after Aβ stimulation), the “cells with enlarged lysosomes not staining for cathepsin B” value is 15-20%. For the same substance, in the data set with lysosomes of microglia (microglia, Aβ-FITC), the “diameter of Aβ-containing lysosomes, largest observed” value was “up to 11 μm” and the “diameter of Aβ-containing lysosomes, mean” value amounted to 4.1±0.4 μm. Further, the “cells with extensive enlargement and swelling of Aβ-containing lysosomes” value with lysosomes of microglia (microglia, of all cells) is on record as around 15%. Besides, the “cells negative for LysoTracker fluorescence” value in the data set on lysosomes of microglia (wild type microglia, Aβ 1, 3 and 10 μM, flow cytometry) is “increased dose-dependently; also recorded: induced loss of LysoTracker Green fluorescence”. For the same substance, the neuronal cell death result in the data set with CAD mouse neuronal cells (mixed neuronal/microglial cultures with wild type microglia, Aβ 10 μM, 72 h) is given as “widespread neuronal cell death”. The “effects on neuronal cells” value in the data set with CAD mouse neuronal cells (neuronal mono-culture) is “only minimal morphological and quantitative effects”. For the same substance, the “microglia around the injection site (F4/80)” value in the data set on mice was “strong recruitment and chemotaxis of microglia”. Besides, in data set [1], the “gene expression of chemokines CCL-3/MIP1 a, CCL4/MIP1β and CXCL2/MIP2” value is on record as “time-dependently upregulated”.
